For series [1] the following is noted: cited from earlier work.
The test system of series [2] is immortalized human glioblastoma cell cultures. The conditions noted are these: cited from earlier work.
For series [3], the system named is primary GBM cell cultures. Description: Cell viability measurements (ddTUNEL, Dead Green, Hoechst staining) in primary GBM cultures. The conditions noted are these: 24 h; PEG-HCCs 2.6 nM, GFAPAB 3.9 nM, SN-38 2 μM.
Method: Total, viable, and dead glioma cell numbers in confluent primary GBM cell cultures were measured using ddTUNEL (a quantitative assay for 3′ OH DNA ends), Dead Green, and Hoechst stains. Cells were treated with GFAPAB/SN-38/PEG-HCCs or saline for 24 h.
Primary human glioblastoma or astrocytoma cells were prepared from tumors within 10 min of their excision. The tumors were broken up using a pipette and then grown in DMEM, 20% FBS, GlutaMax-I, sodium pyruvate and Pen/Strep, for 2 weeks. After this time, and in all presented data, the same media was used, except that sodium pyruvate was omitted. […] GBM and NHA were grown to confluency in the appropriate media on Costar 96-well growth plates (Corning, N.Y.C, NY, USA). […] Cells were grown for 24 h in the presence or absence of all effectors, in a total volume of 250 μL.
The biotinylated ddUTP and biotinylated blunt ended oligonucleotide probe was visualized using Texas Red labeled avidin. […]
Cells were counted at 4× magnification using a Nikon Eclipse TE2000-E fluorescent microscope equipped with a CoolSnap ES digital camera system (Roper Scientific) containing an CCD-1300-Y/HS 1392×1040 imaging array cooled by a Peltier device. Images were recorded using Nikon NIS-Elements software as JEP2000 files.

For `CCc1c2c(nc3ccc(O)cc13)-c1cc3c(c(=O)n1C2)COC(=O)[C@]3(O)CC` [SN-38], in series [1], the log partition coefficient (Log P) is 1.87. Further, the “LD50 range reported by others” value in series [2] is 5 to 10 µM. The “toxicity towards GBM cells (average living cells from ddTUNEL, Dead Green, Hoechst)” value in series [3] was “not toxic”.

For `CC[C@]1(O)C[C@@H]2CN(CCc3c([nH]c4ccccc34)[C@@](C(=O)OC)(c3cc4c(cc3OC)N(C)[C@H]3[C@@](O)(C(=O)OC)[C@H](OC(C)=O)[C@]5(CC)C=CCN6CC[C@]43[C@@H]65)C2)C1` [Vin, Vinblastine], the “Log P” value in series [1] is given as 4.8.

Broadly, the Log P is the decadic logarithm of the partition coefficient of the neutral form, usually between octanol and water.
